Entries after “also recorded” stand apart in the source; their conditions may differ. Where two headings read alike, the source gives them in different places.
Key:
HIV-2 D194 = assay: anti-HIV-2 activity, HIV-2 D194/PBMC; format: cell-based; conditions: Human immunodeficiency virus 2, Table 4
Procedure: The virus production was measured by quantifying the activity of the inverse transcriptase associated with viral particles released into the culture supernatant. In short, cells were infected with 100 TCID50 for 30 minutes; after adsorption of the virus, unbound particles were removed by two washings and the cells were cultivated in the presence of different concentrations of the compounds tested for 5 days before determining the viral production. The concentration inhibiting 50% of the viral multiplication (IC50) came from the computer plot of the median effect of the dose effect results (Chou et al. Elsevier Science Publishers, Cambridge U.K. (1985), 19-28).
Thirty two compounds according to the invention were studied for their anti-HIV-1 biological activity. […] This compound was then tested with other colonies and other cell lines (Table 4).

isolated virion HIV-1LAI = assay: infectivity of the isolated virion after treatment with inhibitors (HT4LacZ cells); format: cell-based
Procedure: H9 cells chronically infected with HIV-1LAI (10^8 /ml) were cocultivated with MT4 cells (10^8 /ml) for 48 hours in an RMPI medium supplemented by 10% of calf foetal serum (CFS). The cells were then removed by centrifugation and then the supernatant liquid was filtered (0.45 μm) to remove residual cells and cell debris.
(§1) After having been incubated with the various inhibitors, the viral supernatants (200 μl) were deposited in the filtering part of a VectaSpin tube (WHATMAN) fitted with an ANAPORE membrane of porosity 0.02 μm. For 10 minutes they were subjected to centrifugation, the acceleration of which reached 6000 g at the filtering membrane. The viral residuums thereby obtained (10-15 μl ) were washed 3 times under the same conditions with 500 μl of RPMI then restored to their initial volumes with RPMI containing 10% of CFS.
The HT4LacZ-1 cells were kept in a DMEM medium (glucose 4.5 g/l) supplemented with 10% of calf foetal serum in the presence of Gentamycin (50 mg/l). These cells stemmed from Hela cells in which had been cloned, on the one hand the gene coding for the human CD4 so as to render them susceptible to infection by the HIV (Chesebro and Wehrly, 1988, J. Virol., 62, 3779-3788), and on the other hand the gene for β-Galactosidase which, placed under the dependent of the LTR of the HIV-1 served as a marker for the viral infection (Rocancourt et al. (1990) J. Virol. 1990 64-6, 2660-2688). When the virus infects such cells after its integration into the cellular genome, the production of the regulatory protein TAT activates the LTR of the HIV. The result is an activation of the gene of β-Galactosidase which leads to its production in the intracellular medium and more particularly in the nucleus. It is this protein that serves as a marker of the infection.
The evening of day 0, the HT4LacZ-1 cells were diluted at the rate of 75000 cells per ml of medium. 100 μl of this suspension was then distributed over a flat bottomed plate with 96 wells and was cultivated overnight at 37° C. (5% of CO2).
The morning of day 1, the supernatant liquid was removed by aspiration. Each well was then complemented with 200 μl of the viral supernatant dilutions to be tested. Each dilution was made in a DMEM medium (glucose 4.5 g/l) supplemented with 10% of CFS. The plates were then placed in an environment at 37° C. in the presence of 5% of CO2.
After 48 hours of culture, the supernatant liquid was aspirated, then each well was washed 3 times in PBS before being complemented with 200 μl of developing buffer (Tris-HCl 50 mM pH=8.5, ONPG 5 mg/ml β-mercapto-ethanol 7 μl/ml Triton×100 0.05%). After 4 hours of incubation at 37° C., the optical density of each well was measured.
The concentration of each of the inhibitors of the IT of the HIV-1 was adjusted to 50 mM in DMSO. The later dilutions were carried out on RPMI 1640. 2 μl of suitable dilutions of each of these inhibitors were added to 198 μl of a freshly unfrozen viral suspension. After 3 hours of incubation at ambient temperature, these suspensions were filtered on 0.02 μ VecraSpin tubes, then washed 3 times with 500 μl of RPMI 1640. The viral residuums were then adjusted to 200 μL with the culture medium (RPMI-10% CFS), then tested with regard to their infectivity on HT4LacZ cells.

CEM-SS cells = assay: cytotoxicity on non-infected cells (MTT test); format: cell-based; conditions: Table 3; non-infected cells, MTT, 5 days
Outline: (§2)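 Non-infected cells incubated 5 days with compounds; viability by MTT reduction to formazan via mitochondrial dehydrogenases, read at OD540. CC50 is the concentration halving OD540.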

[1] = cytotoxicity on non-infected cells (MTT test); format: cell-based; conditions: human
Outline: as §2

[2] = target: T1, endogenous IT of isolated virion (Human immunodeficiency virus type 1 group M subtype B, UniProt P03367); assay: inhibition of the endogenous IT on the isolated virion; format: biochemical; conditions: for IT activity in cpm: Table 7, 10 μM
T1 construct: endogenous in cells; host or cells: isolated HIV-1 virions
Procedure: as §1

HIV-1 LAI = assay: anti-HIV-1 activity: replication of HIV-1 LAI on CEM-SS cells; format: cell-based
Outline: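 CEM-SS cells were infected with 100 TCID50 virus for 30 min, washed, then cultured 5 days with test compound at varied concentrations. Virus production was measured as reverse transcriptase activity in culture supernatant, and IC50 was derived by median-effect dose-effect analysis.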

With `CCc1c(C)[nH]c(=O)c([N+](=O)[O-])c1Sc1cc(C)cc(C)c1` [Compound 7c, 5-ethyl-6-methyl-3-nitro-4-(3', 5'-dimethylphenyl)thio-pyridin-2(1H)-one] as the molecule, how does the IC50 (HIV-2 D194) read?
The IC50 was over 10 µM.

What about the activity at 0.1 µM (isolated virion HIV-1LAI; Human immunodeficiency virus 1, 0.1 μM inhibitor, 3 h, 100 TCID50, compared with viral supernatant subjected to same treatments, mean of 1 to 4 experiments, read-out: Activity of the isolated virions after treatment) of the same molecule?
Its activity at 0.1 µM is 60%.

And the activity at 1 µM (isolated virion HIV-1LAI; Human immunodeficiency virus 1, 1 μM inhibitor, 3 h, 100 TCID50, compared with viral supernatant subjected to same treatments, mean of 1 to 4 experiments, read-out: Activity of the isolated virions after treatment)?
Its activity at 1 µM is 1%.

What about the activity at 10 µM (isolated virion HIV-1LAI; Human immunodeficiency virus 1, 10 μM inhibitor, 3 h, 100 TCID50, compared with viral supernatant subjected to same treatments, mean of 1 to 4 experiments, read-out: Activity of the isolated virions after treatment) of the same molecule?
The activity at 10 µM was 0%.

What about the inhibition in infectivity (isolated virion HIV-1LAI; incubation of 45 minutes, preliminary experiments) of the same molecule?
Its inhibition in infectivity is “greater than 98%”.

What about the “activity on the isolated virion (in words)” value (isolated virion HIV-1LAI; isolated virion) of the same molecule?
The value was “truly active on the isolated virion; also recorded: capable, after having penetrated the viral particle, of inhibiting the inverse transcriptase and of suppressing the viral infectivity”.

What about the CC50 (CEM-SS cells) of the same molecule?
The CC50 was over 10 µM.

What about the CC50 at 120 h ([1]; cem-ss cells, Table 4, line HIV-1 (LA1)/CEMSS) of the same molecule?
The CC50 at 120 h was over 10 µM.

And the CC50 at 120 h ([1]; Table 2, non-infected CEM-SS cells, MTT, 5 days)?
Its CC50 at 120 h is over 10 µM.

What about the “IT activity in cpm” value ([2]; first (unheaded) value column, isolated virion control 813) of the same molecule?
The value was 32 cpm.

What about the “IT activity in cpm” value ([2]; second (unheaded) value column, isolated virion control 809) of the same molecule?
The value was 852 cpm.

And the “penetration of envelope and capsid and blocking of IT” value ([2]; isolated virions incubated 3 hours)?
Its value is “appeared to penetrate the envelope and the viral capsid to fix itself onto the IT and to block its activity”.

And the IC50 (HIV-1 LAI; Human immunodeficiency virus 1, 120 h, Table 2, HIV-1 LAI, CEM-SS cells, 5 days, read-out: IC50, anti-HIV-1 activity)?
Its IC50 is 0.006 µM.

What about the IC50 (HIV-1 LAI; Human immunodeficiency virus 1, CEM-SS, Table 4, HIV-1 (LA1)/CEMSS, read-out: IC50) of the same molecule?
The IC50 was under 0.0004 µM.

What about the “SI (selectivity index)” value (HIV-1 LAI; Table 2, HIV-1 LAI, CEM-SS cells) of the same molecule?
The value was over 1666.

— patent US6015820A, “4-Aryl-thio-pyridin-2(1H)-ones, medicines containing them and their uses in the treatment of illnesses linked to HIV” (priority 1995, dated 2000)
